Values of other authors, collected in patent publication US8143244B2, “Cyclopropyl fused indolobenzazepine HCV NS5B inhibitors” (Bristol-Myers Squibb Company, priority 2009, dated 2012).

Key:
HCV = settings: cited from earlier work
[1] = extended dosing of the combination regimens (interferon and ribavirin); cited from earlier work

| Compound | sustained efficacy in patients (HCV; HCV therapy) | hepatic toxicity [1] | HCV RNA levels in patients (HCV; single agent: transient decrease then rebound, more robust drop combined with interferon and ribavirin) |
| --- | --- | --- | --- |
| alpha-interferon and ribavirin | 40 % of patients | – | – |
| CNC(=O)c1c(-c2ccc(F)cc2)oc2cc(N(CCO)S(C)(=O)=O)c(C3CC3)cc12 [HCV-796] | – | hepatic toxicity observed | showed an ability to reduce HCV RNA levels in patients |
